Assay results taken from patent publication US20210100909A1, “Polymeric Methylprednisolone Conjugates and Uses Thereof” (United States Government As Represented By The Department …, priority 2019, published 2021).

Legend:
[1] = test system: nitrotyrosine; experiment: Nitrotyrosine immunostaining of spinal cord (oxidative stress); assay type: in vivo, rat; settings: 7 days post injury
Protocol: (§1) Injectable methylprednisolone (MP) solution (62.5 mg/ml) was obtained from Pfizer. MP was conjugated to the chain terminus of methoxy HPMA, an amphiphilic macromolecular prodrug. In parallel, IRDye® 800CW-MP-HPMA (MP-Nano-IRDye) and Alexa Fluor 488-labeled HPMA-MP (MP-Nano-Alexa 488) were also synthesized for optical imaging to visualize the bio-distribution of MP-Nano. Immediately after spinal cord transection, animals were administered an intravenous injection of freshly prepared MP-Nano (60 mg/kg, equivalent to 20% free MP dose at 30 mg/kg), MP (30 mg/kg) or vehicle (propylene glycol) by tail vein, followed by implantation of an Alzet pump (Durect Co, Cupertino, Calif., USA) which provided a 24-h infusion of MP at 5.4 mg/kg/hr (SCI-MP), or vehicle (propylene glycol) (SCI-veh and SCI-Nano-MP) into a subcutaneous pocket. These dosing of MP corresponds on an mg per kg basis to that prescribed by the Bracken protocol. Sham-transected animals underwent laminectomy and implantation of the same Alzet pumps, with vehicle (propylene glycol) infusion instead, as baseline controls.
(§2) At 2 and 7 days after injury, animals (sham, SCI-veh, SCI-MP, SCI-Nano-MP, n=5 animals for each condition and time point) were perfused transcardially with 4% paraformaldehyde. […] Fluorescence intensity quantifications were performed in the ImageJ software (NIH).

[2] = test system: TNF-α; experiment: TNF-α immunostaining of spinal cord (inflammation); assay type: in vivo, rat; settings: 7 days post injury
Protocol: as §1, §2

[3] = Body weight and food intake after acute SCI; assay type: in vivo, rat
Protocol: All animals were maintained on a 12:12-h light/dark cycle with lights on at 07:00 h in a temperature-controlled (20±2° C.) vivarium. Spinal cord transection surgery was performed as previously described. In brief, 9-week-old Wistar rats (Charles River) were anesthetized by inhalation of isofluorane (3-5%) and hair was removed with a clipper. Skin over the back was cleaned with betadine and isopropyl alcohol. After making a midline incision the spinal cord at the site of transection (T4) was visualized by laminectomy, and the spinal cord was transected with microscissors. The space between transected ends of the spinal cord was filled with surgical sponge and the wound was closed in two layers with suture. Urine was manually expressed 3 times daily until automaticity develops, then as needed. Baytril was administered for the first 3 to 5 days postoperatively then as needed for sign of cloudy or bloody urine or wound infection. Sham-transected animals received a laminectomy-only surgery.
Injectable methylprednisolone (MP) solution (62.5 mg/ml) was obtained from Pfizer. MP was conjugated to the chain terminus of methoxy HPMA, an amphiphilic macromolecular prodrug to produce a polymeric methylprednisolone conjugate. […]

[4] = Fasting blood glucose level; assay type: in vivo, rat; settings: 2 days post injury
Text: Rats were fasted overnight in clean cages with free access to water in new clean bottles. The next morning prior to sacrifice, fasted blood glucose measurement was taken by applying tail blood to a Contour Blood Glucose Monitoring System (Bayer).

[5] = test system: GLUT4; experiment: GLUT4 gene expression in gastrocnemius muscle (qPCR); assay type: in vivo, rat; settings: SCI animals
Protocol: (§3) Total RNAs from gastrocnemius, soleus and bone were extracted using the TRI reagent (Sigma-Aldrich). For western blot analysis, gastronemius and soleus muscle tissue were lysed in RIPA buffer. Protein concentrations were determined using the BCA method. 30 μg protein lysate was used for the SDS-PAGE protein separation, and blots were probed with FOXO1 antibody.
(§4) Real time PCR was used for the determination of mRNA levels as described previously. One μg of total RNA was used to synthesize the first strand cDNA by the High Capacity cDNA Reverse Transcription Kit (Applied Biosystems). qPCR was performed with an Applied Biosystems (ABI) Via 7 thermal cycler using ABI Taqman 2×PCR mix and ABI Assay on Demand qPCR primers. Changes in expression were calculated using the 2-ΔΔCt method using 18S RNA as the internal control.

[6] = test system: G6PC; experiment: G6PC gene expression in gastrocnemius muscle (qPCR); assay type: in vivo, rat; settings: SCI animals
Protocol: as §3, §4

[7] = Skeletal muscle mass after acute SCI; assay type: in vivo, rat
Protocol: At the end of animal study, animals were euthanized by inhalation of isofluorane prior to harvesting of tissue for study. Gastrocnemius, soleus, plantaris, EDL, bicep and tricep muscle on both sides were dissected, weighed and stored at −80° C. for further analysis. The leg was removed using sterile technique; careful dissection was performed to free the head of the femur from the pelvis. To preserve bone for micro-CT study, the left leg was removed and placed into tubes containing 4% PFA overnight, after which the PFA will be replaced with 70% ethanol for storage. The right femur and tibia (n=4-5 per group) were placed in ice-cold Minimum Essential Alpha Medium (α-MEM), and then immediately processed for extraction of total RNA from bone.

[8] = test system: gastrocnemius muscle; experiment: Muscle histology (H&E) of gastrocnemius, fiber cross-sectional area; assay type: in vivo, rat
Protocol: Pieces of gastrocnemius muscle were frozen in isopentane pre-cooled on dry ice and stored at −80° C. Transverse sections (10 μm) were then cut on Leika CM3050S cryostat and mounted directly onto cooled glass slides followed by hematoxylin & eosin (H&E) staining. Stained sections were viewed in the EVOS FL Auto system (Life Technologies). Fiber size measurement and distribution was performed using the ImageJ software (NIH).

[9] = test system: TNF-α; experiment: TNF-α mRNA in gastrocnemius and soleus muscle; assay type: in vivo, rat; settings: 2 days post injury
Protocol: as §3, §4

[10] = test system: MAFbx/atrogin-1 and MuRF1; experiment: MAFbx and MuRF1 mRNA in muscle; assay type: in vivo, rat; settings: 2 days post injury
Protocol: as §3, §4

[11] = test system: FOXO1; experiment: FOXO1 protein level in muscle (western blot); assay type: in vivo, rat
Protocol: as §3

[12] = Areal bone mineral density by DXA; assay type: in vivo, rat
Protocol: (§5) Areal bone mineral density (BMD) measurements were performed by using a small animal dual-energy X-ray absorptiometer (DXA) (Lunar Piximus, Fitchburg, Wis., USA) as previously described. Volumetric BMD and bone architecture of the distal femur were assessed by a Scanco μCT scanner (μCT-40; Scanco Medical AG, Bassersdorf, Switzerland) at […] isotropic voxel size as previously described.

[13] = Bone architecture by high-resolution μCT; assay type: in vivo, rat
Protocol: as §5

[14] = test system: TRAP, calcitonin receptor (CTR) and Integrin β3; experiment: Osteoclastic marker mRNA in bone (TRAP, CTR, Integrin β3); assay type: in vivo, rat; settings: whole bone RNA
Protocol: (§6) Total bone RNA was extracted as previously described with some modifications. Briefly, long bones were dissected free of soft tissues, and bone marrow were flushed away with PBS using a 27 G ½ needle-syringe. The bone samples (˜1 g) were longitudinally cut into small piece and then digested 3 times with 2 mg/ml collagenase type I (Gibco, >150 Units; 20 ml), one time with 5 mM EDTA (Sigma-Aldrich, 10 ml)), and one more with the collagenase and EDTA, each for 25 min on a Shaker with rotation at 150 rpm at 370 C. Following the digestions, the bone samples were crushed using a mortar and pestle in liquid nitrogen. RNA was extracted from the lysate using the TRizol reagent (Sigma Aldrich) according to the manufacturer's instructions.
as §4

[15] = test system: RANKL; experiment: RANKL mRNA and OPG/RANKL ratio in bone; assay type: in vivo, rat; settings: whole bone RNA
Protocol: as §6, §4

[16] = test system: SOST; experiment: SOST mRNA in bone; assay type: in vivo, rat; settings: p<0.05
Protocol: as §6, §4

[17] = intravenous; cited from earlier work

change of GLUT4 expression [5]: −56.5%
G6PC expression vs. sham [6]: ~8 fold
muscle mass gastrocnemius vs. sham ([7]; NS): −12.5%
muscle mass biceps vs. sham ([7]; p<0.01): −14.6%
muscle mass EDL vs. sham ([7]; p<0.05): −10.4%
change of fiber cross-sectional area [8]: −40%
cross-sectional area and fiber size distribution ([8]; in words): significant left shift of fiber size
FOXO1 protein level in gastrocnemius and soleus muscle vs. SCI-veh [11]: drastically elevated
decrease in BMD at the distal femur vs. sham [12]: 11%
decrease of BMD at the proximal tibia vs. sham [12]: 11.2%
cortical architecture of the femur midshaft ([13]; cortical bone volume, number, thickness, separation): No significant change
osteoclastic markers TRAP, CTR and Integrin β3 mRNA vs. sham [14]: increase
decrease in the OPG/RANKL ratio vs. sham [15]: about three-fold
mRNA level of RANKL vs. sham [15]: ~7 fold
levels of SOST mRNA vs. Sham [16]: −22%
SMILES: C[C@H]1C[C@@H]2[C@H]([C@@H](O)C[C@@]3(C)[C@H]2CC[C@]3(O)C(=O)CO)[C@@]2(C)C=CC(=O)C=C12 [MP, methylprednisolone]
change of SCI-induced accumulation of nitrotyrosine vs. SCI-veh [1]: −40.0%
change of SCI-induced TNF-α expression vs. SCI-veh [2]: −32.5%
body weight loss ([3]; Day 1 and Day 2 post injury, vs control animals): significantly higher weight loss
food intake ([3]; vs all other experiment groups): Pronounced decrease of food intake
fasting glucose level vs. sham [4]: +10.4%
mRNA level of TNF-α in gastrocnemius and soleus muscle [9]: significantly increased
MAFbx and MuRF1 mRNA level in gastrocnemius muscle [10]: more significant induction
MAFbx mRNA level in soleus vs. SCI-veh group [10]: more significant increases
trabecular bone architecture of the distal femur ([13]; μCT structural parameters): more significant change in each of those structural parameters than SCI-veh group
pharmacokinetic half-life [17]: 2.5 to 3 h
